Assay type in all cases: cell-based
One experiment addresses T1, STAT3 (Homo sapiens, UniProt P40763).
T1 construct: plasmid pSTAT3-TA-luc), which contains a stably operating STAT3 promoter; endogenous in cells
Briefly: STAT3 reporter gene (luciferase) assay in LNCaP stable cell line stimulated with IL-6. Conditions: LNCaP stable cell line (pSTAT3-TA-luc), IL-6 10 ng/mL, 24 hours. As for the experimental part:
1-1) Experiment on the Inhibition of STAT3 Activity
A human prostate cancer cell line (LNCaP stable cell line; plasmid pSTAT3-TA-luc), which contains a stably operating STAT3 promoter, was cultured in RPMI1640 medium (Cat No. 11875, Life Technologies) containing 10% fetal bovine serum (FBS) (Cat No. SH30396, Thermo Scientific) and 150 μg/mL G-418 solution (Cat No. 04 727 894 001, Roche). The reporter gene assay using LNCaP stable cell line was performed in RPMI1640 medium containing 3% DCC-FBS without G-418 solution. LNCaP stable cells were plated in two (2) white 96-well plates with 30,000 cells/50 μL in each well. The cells were cultured at 37° C., under 5% CO2 for 24 hours, and then treated with the compounds listed in Examples which were diluted in various concentrations. Subsequently, IL-6 was added to each well with a final concentration of 10 ng/mL. Upon completion of the treatment with the compounds and IL-6, the cells were cultured at 37° C., under 5% CO2 for 24 hours. The plates were observed under microscope and drug precipitation and particular findings were investigated and recorded.
The luciferase assay and the cell viability assay were performed respectively with one of the two plates. For the luciferase assay, the liquid media in the 96-well plate was removed, and then, 20 μL of passive cell lysis buffer was added to each well. After shaking the plate for 30 minutes, luciferase activities of each well were measured in a PHERAstar™ microplate reader (BMG LABTECH) using a luciferase assay system (Cat No. E1501, Promega). For the cell viability assay, the 96-well plate was placed at room temperature for 30 minutes, added with 20 μL/well of CellTiter-Glo solution (Cat No. G7573, Promega), and shaken for 10 minutes in order to measure cytotoxicity caused by the compounds listed in Examples with a PHERAstar™ microplate reader (BMG LABTECH). Wells without 0.1% DMSO and stimulation were used as a negative control and wells with 0.1% DMSO and stimulation were used as a positive control.
The results of evaluation on the inhibitory effect of the compounds listed in the Examples on the dimerization of STAT3 and STAT1 obtained via the STAT3 and STAT1 reporter gene assays are shown in Table 6 below.

The test system of another experiment is MDA-MB-468. Briefly: Cell growth inhibition assay (CellTiter-Glo), breast cancer cell line MDA-MB-468. Conditions: Homo sapiens; MDA-MB-468 cells, 96 hours. As for the experimental part: (§1) The inhibitory effects of the compounds of the present invention against the growth of cancer cells were evaluated as shown below. The cancer cell lines including stomach cancer cell line (NCI-N87) and breast cancer cell line (MDA-MB-468) were cultured under the protocol provided by each supplier. Each type of cells to be used in experiments was sub-cultured in a 96-well plate by counting the exact number of cells using Tali™ Image-based Cytometer (Life Technologies). In a 96-well plate, NCI-N87 was employed with 5,000 cells/well; and MDA-MB-468 was employed with 10,000 cells/well. The cells were treated with the compounds listed in Examples which were diluted in various concentrations. Upon completion of the compounds treatment, NCI-N87 cells were cultured at 37° C. under 5% CO2 for 96 hours, and MDA-MB-468 cells were cultured at 37° C. in air for 96 hours. Subsequently, the cells were observed under microscope and drug precipitation and particular findings were investigated and recorded. And then, the 96-well plate was placed at room temperature for 30 minutes, added with 20 μL/well of CellTiter-Glo solution (Cat No. G7573, Promega) and shaken for 10 minutes, followed by being subjected to the measurement using PHERAstar™ microplate reader (BMG LABTECH) according to the supplier's general luminometer protocol. Wells where only culture liquid added without cell plating were used as a negative control, whereas wells where culture liquid containing 0.1% DMSO instead of the compounds listed in Examples were used as a positive control.
In general terms: Cellular ATP, detected with luciferase, serves as a proxy for viable cell number.

The next experiment relates to NCI-N87. Nature of the experiment: Cell growth inhibition assay (CellTiter-Glo), stomach cancer cell line NCI-N87. Conditions: Homo sapiens; NCI-N87 cells, 96 hours. As for the experimental part: as §1

Each structure is given as a SMILES string.

T1 sequence (P40763 whole entry): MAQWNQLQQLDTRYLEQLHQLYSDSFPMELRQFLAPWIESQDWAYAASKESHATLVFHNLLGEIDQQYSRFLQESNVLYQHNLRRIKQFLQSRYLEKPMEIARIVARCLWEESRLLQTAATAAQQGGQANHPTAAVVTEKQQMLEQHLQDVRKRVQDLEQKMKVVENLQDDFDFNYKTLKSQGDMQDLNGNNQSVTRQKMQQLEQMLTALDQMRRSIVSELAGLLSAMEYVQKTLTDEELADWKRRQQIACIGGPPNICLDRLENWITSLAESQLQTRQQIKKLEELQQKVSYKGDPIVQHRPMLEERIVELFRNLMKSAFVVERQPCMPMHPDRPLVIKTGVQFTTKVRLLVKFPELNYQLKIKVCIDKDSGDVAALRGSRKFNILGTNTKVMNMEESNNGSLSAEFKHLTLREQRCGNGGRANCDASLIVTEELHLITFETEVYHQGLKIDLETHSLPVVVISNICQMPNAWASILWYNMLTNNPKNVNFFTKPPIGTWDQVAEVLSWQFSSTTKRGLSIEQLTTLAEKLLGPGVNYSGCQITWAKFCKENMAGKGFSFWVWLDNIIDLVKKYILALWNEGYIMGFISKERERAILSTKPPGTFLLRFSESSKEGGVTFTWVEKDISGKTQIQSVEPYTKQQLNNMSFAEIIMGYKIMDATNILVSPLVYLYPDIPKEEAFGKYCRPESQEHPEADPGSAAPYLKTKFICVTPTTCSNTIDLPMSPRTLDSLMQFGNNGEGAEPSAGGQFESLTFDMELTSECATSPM

By IC50 is commonly meant the midpoint of a concentration-inhibition curve. A lower IC50 goes with greater potency in that assay. Take `O=C(Nc1cc(Cl)nc(Oc2ccc(Cl)cc2)c1)c1cc2cc3c(cc2s1)OCCC3n1cccn1` (stereo not drawn) [Example 52, N-(2-chloro-6-(4-chlorophenoxy)pyridin-4-yl)-4-(1H-pyrazol-1-yl)-3,4-dihydro-2H-thieno[3,2-g]chromene-7-carboxamide]: the IC50 against STAT3 was determined as 0.1 µM; in the experiment with MDA-MB-468 it was 0.12 µM; in the experiment on NCI-N87 it was 0.4 µM.
In the same order, the values of `CS(=O)(=O)C1CCOc2cc3sc(C(=O)Nc4cc(Cl)nc(Oc5ccc(C(F)(F)F)cc5)c4)cc3cc21` (stereo not drawn) [Example 17, N-(2-chloro-6-(4-(trifluoromethyl)phenoxy)pyridin-4-yl)-4-(methylsulfonyl)-3,4-dihydro-2H-thieno[3,2-g]chromene-7-carboxamide] are 0.0039 µM, 0.0023 µM and 0.011 µM.
In the same order, the values of `C[C@]1(S(C)(=O)=O)CCOc2cc3sc(C(=O)Nc4cc(Cl)nc(Oc5ccc(Cl)cc5)c4)cc3cc21` [Example 47, (S)—N-(2-chloro-6-(4-chlorophenoxy)pyridin-4-yl)-4-methyl-4-(methylsulfonyl)-3,4-dihydro-2H-thieno[3,2-g]chromene-7-carboxamide] are 0.0045 µM, 0.0017 µM and 0.0064 µM.
In the same order, the values of `CS(=O)(=O)C1CCOc2cc3sc(C(=O)Nc4cc(Cl)nc(Oc5ccc(Cl)c(F)c5)c4)cc3cc21` (stereo not drawn) [Example 19, N-(2-chloro-6-(4-chloro-3-fluorophenoxy)pyridin-4-yl)-4-(methylsulfonyl)-3,4-dihydro-2H-thieno[3,2-g]chromene-7-carboxamide] are 0.0084 µM, 0.0025 µM and 0.0061 µM.
For the compound `CS(=O)(=O)C1CCCOc2cc3sc(C(=O)Nc4cc(Cl)nc(Oc5ccc(Cl)cc5)c4)cc3cc21` (stereo not drawn) [Example 9, N-(2-chloro-6-(4-chlorophenoxy)pyridin-4-yl)-5-(methylsulfonyl)-2,3,4,5-tetrahydrothieno[3′,2′:4,5]benzo[1,2-b]oxepine-8-carboxamide], the IC50 was found to be 0.029 µM against STAT3, 0.023 µM in the experiment on MDA-MB-468 and 0.067 µM in the experiment on NCI-N87.
In the same order, the values of `Cc1cc(Cl)ccc1Oc1cc(NC(=O)c2cc3cc4c(cc3s2)OCCC4S(C)(=O)=O)cc(Cl)n1` (stereo not drawn) [Example 21, N-(2-chloro-6-(4-chloro-2-methylphenoxy)pyridin-4-yl)-4-(methylsulfonyl)-3,4-dihydro-2H-thieno[3,2-g]chromene-7-carboxamide] are 0.011 µM, 0.0051 µM and 0.018 µM.
In the same order, the values of `CS(=O)(=O)C1CCC(=O)c2cc3sc(C(=O)Nc4cc(Cl)nc(Oc5ccc(Cl)cc5)c4)cc3cc21` (stereo not drawn) [Example 51, N-(2-chloro-6-(4-chlorophenoxy)pyridin-4-yl)-5-(methylsulfonyl)-8-oxo-5,6,7,8-tetrahydronaphtho[2,3-b]thiophene-2-carboxamide] are 0.1 µM, 0.05 µM and 0.2 µM.
The corresponding values for `Cc1cccc(Oc2cc(NC(=O)c3cc4cc5c(cc4s3)OCCC5S(C)(=O)=O)cc(Cl)n2)c1F` (stereo not drawn) [Example 41, N-(2-chloro-6-(2-fluoro-3-methylphenoxy)pyridin-4-yl)-4-(methylsulfonyl)-3,4-dihydro-2H-thieno[3,2-g]chromene-7-carboxamide] are 0.011 µM, 0.012 µM and 0.021 µM.
On to `CS(=O)(=O)C1CCOc2cc3sc(C(=O)Nc4cc(Cl)nc(Oc5cc(F)cc(Cl)c5)c4)cc3cc21` (stereo not drawn) [Example 31, N-(2-chloro-6-(3-chloro-5-fluorophenoxy)pyridin-4-yl)-4-(methylsulfonyl)-3,4-dihydro-2H-thieno[3,2-g]chromene-7-carboxamide], for which the IC50 worked out at 0.008 µM against STAT3, 0.0022 µM in the experiment with MDA-MB-468 and 0.009 µM in the experiment on NCI-N87.

These data come from patent US10633394B2, “Heterocyclic derivatives and use thereof” (C & C RESEARCH LABORATORIES, priority 2014, dated 2020).
